In patent publication US20120165319A1, “INHIBITORS OF INTERLEUKIN-1 BETA CONVERTING ENZYME” (VERTEX PHARMACEUTICALS INCORPORATED, priority 1995, published 2012):
Values belong to the compound of their own block, whether it stands above or below them.

Key:
[1] = Measurement of blood levels of prodrugs of 214e after p.o. dosing in mice; type: in vivo, mouse
Method: Measurement of Blood Levels of Prodrugs of 214e
Mice were administered a p.o. dose of compounds 302 and 304a (50 mg/kg) prepared in 0.5% carboxymethylcellulose. Blood samples were collected at 1 and 7 hours after dosing. Serum was extracted by precipitation with an equal volume of acetonitrile containing 2% formic acid followed by centrifugation. The supernatant was analyzed by liquid chromatography-mass spectrometry (ESI-MS) with a detection level of 0.03 to 3 μg/ml.

ICE = target: T1, ICE (Homo sapiens, UniProt P29466); test: Enzyme assay with fluorescent substrate (Acetyl-Tyr-Val-Ala-Asp-AMC); Ki and second order rate constants kinact; type: biochemical; conditions: for kinact (ICE): second-order rate constant for inactivation, irreversible inhibitors (Table 2)
T1 sequence (P29466 120-297 limits assumed): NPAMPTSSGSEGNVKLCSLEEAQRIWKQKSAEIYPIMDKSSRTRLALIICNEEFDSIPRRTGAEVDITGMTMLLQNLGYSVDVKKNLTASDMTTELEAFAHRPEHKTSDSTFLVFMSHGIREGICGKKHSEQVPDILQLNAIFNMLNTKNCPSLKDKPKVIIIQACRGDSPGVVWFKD
T1 sequence (P29466 317-404 limits assumed): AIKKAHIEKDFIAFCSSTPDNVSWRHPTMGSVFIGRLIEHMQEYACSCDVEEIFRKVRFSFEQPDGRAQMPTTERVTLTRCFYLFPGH
Method: 2. Enzyme Assay with Fluorescent Substrate
This assay is run essentially according to Thornberry et al. (Nature 356: 768-774 (1992)), using substrate 17 referenced in that article. The substrate is: Acetyl-Tyr-Val-Ala-Asp-amino-4-methylcoumarin (AMC). The following components are mixed:
The assay is run in a 96 well microtiter plate. Buffer and ICE are added to the wells. The components are left to incubate at 37° C. for 15 minutes in a temperature-controlled wellplate. After the 15 minute incubation, the reaction is started by adding substrate directly to the wells and the reaction is monitored @37° C. for 30 minutes by following the release of the AMC fluorophore using an excitation wavelength for 380 nm and an emission wavelength of 460 nm. A linear fit of the data for each well is performed and a rate is determined in fluorescence units per second.
For determination of enzyme inhibition constants (Ki) or the mode of inhibition (competitive, uncompetitive or noncompetitive), the rate data determined in the enzyme assays at varying inhibitor concentrations are computer-fit to standard enzyme kinetic equations (see I. H. Segel, Enzyme Kinetics, Wiley-Interscience, 1975).
The determination of second order rate constants for irreversible inhibitors was performed by fitting the fluorescence vs time data to the progress equations of Morrison. Morrison, J. F., Mol. Cell. Biophys., 2, pp. 347-368 (1985). Thornberry et al. have published a description of these methods for measurement of rate constants of irreversible inhibitors of ICE. Thornberry, N. A., et al. Biochemistry, 33, pp. 3923-3940 (1994). For compounds where no prior complex formation can be observed kinetically, the second order rate constants (kinact) are derived directly from the slope of the linear plots of kobs vs. [I]. For compounds where prior complex formation to the enzyme can be detected, the hyperbolic plots of kobs vs. [I] are fit to the equation for saturation kinetics to first generate Ki and k′. The second order rate constant kinact is then given by k′/Ki.
The selectivity of a panel of reversible inhibitors for ICE homologs is depicted in Table 1. ICE enzyme assays were performed according to Wilson et al (supra 1994) using a YVAD-AMC substrate (Thornberry et al, supra 1992). Assay of TX activity was performed using the ICE substrate under identical conditions to ICE. Assay of CPP32 was performed using a DEVD-AMC substrate (Nicholson et al., supra 1995). In general, there is low selectivity between ICE and TX for a wide range of scaffolds. None of the synthetic ICE compounds tested are effective inhibitors of CPP32.
Second-order rate constants for inactivation of ICE and ICE homologs with selected irreversible inhibitors are presented below (Table 2). The irreversible compounds studied are broad spectrum inhibitors of ICE and its homologs. Some selectivity, however, is observed with the irreversible compounds comparing inhibition of ICE and CPP32.

U937 cells = test: Fas-induced apoptosis in U937 cells; conditions: for inhibition at 20 µM: U-937, read-out: Inhibition of apoptosis
[2] = tested on: IL-1β levels in the peritoneal fluid, carrageenan-challenged mice; test: Mouse carrageenan peritoneal inflammation; type: in vivo; conditions: oral administration; 214e at 50 mg/kg; result in words
Method: Mouse Carrageenan Peritoneal Inflammation
Inflammation was induced in mice with an intraperitoneal (IP) injection of 10 mg carrageenan in 0.5 ml of saline (Griswold et al., Inflammation, 13, pp. 727-739 (1989)). Drugs are administered by oral gavage in ethanol/PEG/water, β-cyclodextrin, labrosol/water or cremophor/water vehicle. The mice are sacrificed at 4 hours post carrageenan administration, then injected IP with 2 ml of saline containing 5 U/ml heparin. After gentle massage of the peritoneum, a small incision is made, the contents collected and volume recorded. Samples are kept on ice until centrifuged (130×g, 8 mins at 4° C.) to remove cellular material, and the resultant supernatant stored at −20° C. IL-1β levels in the peritoneal fluid are determined by ELISA.

Fluorescent Assay kinact (ICE; Table 6): 4 × 10^5 m^−1 s^−1
Compound: O=C(O)C[C@H](NC(=O)[C@@H]1CCCN2C(=O)CC[C@H](NC(=O)c3ccccc3)C(=O)N12)C(=O)CSc1nnnn1-c1ccccc1 [Compound 280, [3S(1S,9S)]3-(9-Benzoylamino-6,10-dioxo-1,2,3,4,7,8,9,10-octahydro-6H-pyridazino[1,2-a][1,2]diazepine-1-carboxamido)-4-oxo-5(1-phenyl-1H-tetrazole-5-thio)pentanoic acid]

Fluorescent Assay kinact (ICE; Table 6): 5.4 × 10^5 m^−1 s^−1
Compound: O=C(O)C[C@H](NC(=O)[C@@H]1CCCN2C(=O)CC[C@H](NC(=O)CCc3ccccc3)C(=O)N12)C(=O)COC(=O)c1c(Cl)cccc1Cl [Compound 136]
inhibition at 20 µM (U937 cells; Homo sapiens): > 75%

Fluorescent Assay kinact (ICE; Table 18): 370000 m^−1 s^−1
Compound: CS(=O)(=O)N[C@H]1CCC(=O)N2CCC[C@@H](C(=O)N[C@@H](CC(=O)O)C(=O)COC(=O)c3cccc4ccccc34)N2C1=O [Compound 286, [3S(1S,9S)]3-(6,10-Dioxo-9-methanesulphonylamino-1,2,3,4,7,8,9,10-octahydro-6H-pyridazino[1,2-a][1,2]diazepine-1-carboxamido)-5-(1-naphthoyloxy)-4-oxopentanoic acid]

Fluorescent Assay kinact (ICE; Table 6): 1 × 10^5 m^−1 s^−1
Compound: O=C(O)C[C@H](NC(=O)[C@@H]1CCCN2C(=O)CC[C@H](NC(=O)c3ccccc3)C(=O)N12)C(=O)COc1cccnc1 [Compound 283, [3S(1S,9S)]3-[9-Benzoylamino-6,10-dioxo-1,2,3,4,7,8,9,10-octahydro-6H-pyridazino[1,2-a][1,2]diazepine-1-carboxamido]-4-oxo-5-(3-pyridyloxy)pentanoic acid]

Fluorescent Assay kinact (ICE; Table 18): 190000 m^−1 s^−1
Compound: [3S(1S,9S)]3-[(6,10-Dioxo-9-(methanesulphonylamino)-1,2,3,4,7,8,9,10-octahydro-6H-pyridazino[1,2-a][1,2]diazepine-1-carboxamido]-5-(5-methyl-3-phenylisoxazoyloxy)-4-oxopentanoic acid [505 b]

Fluorescent Assay kinact (ICE; Table 6): 3.5 × 10^5 m^−1 s^−1
Compound: COC(=O)N[C@H]1CCC(=O)N2CCC[C@@H](C(=O)N[C@@H](CC(=O)O)C(=O)COC(=O)c3c(Cl)cccc3Cl)N2C1=O [Compound 284, [3S(1S,9S)]5-(2,6-Dichlorobenzoyloxy)-3-[6,10-dioxo-9-(methoxycarbonyl)amino-1,2,3,4,7,8,9,10-octahydro-6H-pyridazino[1,2-a][1,2]diazepine-1-carboxamido]-4-oxopentanoic acid]

Fluorescent Assay kinact (ICE; Table 6): 4.3 × 10^5 m^−1 s^−1
Compound: COC(=O)N[C@H]1CCC(=O)N2CCC[C@@H](C(=O)N[C@@H](CC(=O)O)C(=O)COC(=O)c3c(C)cccc3C)N2C1=O [Compound 285, [3S(1S,9S)]5-(2,6-Dimethylbenzoyloxy)-3-[6,10-dioxo-9-(methoxycarbonyl)amino-1,2,3,4,7,8,9,10-octahydro-6H-pyridazino[1,2-a][1,2]diazepine-1-carboxamido]-4-oxopentanoic acid]

The remaining lines, values behind:

Compound: CC(C)(C)OC(=O)C[C@@H](C=O)NC(=O)[C@@H]1CCCN2C(=O)CC[C@H](NC(=O)c3ccccc3)C(=O)N12 [Compound 302, [3S(1S,9S)3-(9-Benzoylamino-6,10-dioxo-1,2,3,4,7,8,9,10-octahydro-6H-pyriazino-[1,2-a][1,2]diazapine-1-carboxamido)-amino]-4-oxobutanoic acid tert-butyl ester]
blood levels when administered orally (in words) ([1]; p.o. 50 mg/kg in 0.5% carboxymethylcellulose, blood at 1 and 7 hours): detectable blood levels

Compound: CS(=O)(=O)N[C@H]1CCC(=O)N2CCC[C@@H](C(=O)N[C@@H](CC(=O)O)C(=O)COC(=O)c3c(Cl)cccc3Cl)N2C1=O [Compound 138]
Fluorescent Assay kinact (ICE; Table 6): 1.2 × 10^5 m^−1 s^−1
kinact (ICE) (ICE): 120,000 M^−1 s^−1
inhibition at 20 µM (U937 cells; Homo sapiens): > 75%

Compound: O=C[C@H](CC(=O)O)NC(=O)[C@@H]1CCCN2C(=O)CC[C@H](NC(=O)c3ccccc3)C(=O)N12 [Compound 214e, [3S(1S,9S)]3-(9-Benzoylamino-6,10-dioxo-1,2,3,4,7,8,9,10-octahydro-6H-pyridazino[1,2-a][1,2]-diazepine-1-carboxamido)-4-oxobutanoic acid]
Ki (ICE; YVAD-AMC substrate, reversible inhibitors (Table 1)): 7.5 nM
blood levels when administered orally ([1]; orally, detection level 0.03 to 3 μg/ml): ≤ 100 ng/mL
inhibition of IL-1β production in carrageenan-challenged mice [2]: did not inhibit IL-1β production
Inhibition of apoptosis (U937 cells; anti-Fas-induced apoptosis, U937 cells, 20 μM): no inhibition

Compound: O=C(O)C[C@H](NC(=O)[C@@H]1CCCN2C(=O)CC[C@H](NC(=O)c3ccccc3)C(=O)N12)C(=O)COC(=O)c1c(Cl)cccc1Cl [Compound 217e, [3S(1S,9S)]3-(9-Benzoylamino-6,10-dioxo-1,2,3,4,7,8,9,10-octahydro-6H-pyridazino[1,2-a][1,2]-diazepine-1-carboxamido)-5-(2,6-dichlorobenzoyloxy)-4-oxopentanoic acid]
IC50 (U937 cells; Homo sapiens, U-937, 24 h, read-out: IC50, anti-Fas-induced apoptosis): 800 nM

Compound: O=C(O)C[C@H](NC(=O)[C@@H]1CCCN2C(=O)CC[C@H](NC(=O)OCc3ccccc3)C(=O)N12)C(=O)COC(=O)c1c(Cl)cccc1Cl [Compound 217d, [3S(1S,9S)]3-(9-Benzyloxycarbonylamino-6,10-dioxo-1,2,3,4,7,8,9,10-octahydro-6H-pyridazino[1,2-a][1,2]-diazepine-1-carboxamido)-5-(2,6-dichlorobenzoyloxy)-4-oxopentanoic acid]
Fluorescent Assay kinact (ICE; Table 6): 4.7 × 10^5 m^−1 s^−1
kinact (ICE) (ICE): 475,000 M^−1 s^−1

Compound: CS(=O)(=O)N[C@H]1CCC(=O)N2CCC[C@@H](C(=O)N[C@@H](CC(=O)O)C(=O)COC(=O)c3sccc3Cl)N2C1=O [505 e, [3S(1S,9S)]5-(3-Chlorothien-2-oyloxy)-3-(6,10-dioxo-9-methanesulphonylamino-1,2,3,4,7,8,9,10-octahydro-6H-pyridazino[1,2-a][1,2]diazepine-1-carboxamido)-4-oxopentanoic acid]
Fluorescent Assay kinact (ICE; Table 18): 420000 m^−1 s^−1
